# Data as given in patent EP1410783B1, “Foaming compositions” (Beiersdorf AG, priority 2001, dated 2003).
# Experiment: Polarity of lipids (no method described)
# Format: physicochemical
# Conditions: further lipids with polarity ≥ 30 mN/m, listed by INCI name
row,Molecule,Polarität
1,CCCCC(CC)COC(=O)CCCCCC(C)C (stereo not drawn) [2- Ethylhexyl Isononanoate],"31,0 mN/m"
2,CCCCCCCC/C=C\CCCCCCCC(=O)OCCOCCOCC [Ethoxydiglycol Oleate],"40,5 mN/m"
3,CCCCCCCCCCCCCC(C)C [Isohexadecane],"43,8 mN/m"
4,CCCCCCCCOC(=O)CCCCCCCCCCCCCCC(C)C [Octyl Isostearate],"31,6 mN/m"
5,CC(CCOC(=O)CC(C)CC(C)(C)C)CC(C)(C)C (stereo not drawn) [Trimethylhexyl Isononanoate],"31,1 mN/m"
6,Dioctylcyclohexane,"39,0 mN/m"
7,Isocetyl Palmitate,"36,2 mN/m"
8,Isoeikosan,"41,9 mN/m"

# Same assay, conditions: lipids of the oil phase with polarity ≤ 30 mN/m, listed by manufacturer, trade name and INCI name
row,Molecule,Polarität
1,"CCCCOC(=O)CCCCC(=O)OCCCC [Cetiol B, Dibutyl Adipate]","14,3 mN/m"
2,"CC(C)CCCCCCCOC(=O)C(C)(C)C [DUB VCI 10, Isodecyl Neopentanoate]","29,9 mN/m"
3,"CCCCC(CC)C(=O)OCCC(C)CC(C)(C)C (stereo not drawn) [Dermol 98, 2-Ethylhexanosäure 3,5,5 Trimethylester]","26,2 mN/m"
4,"CCCCCCCC(=O)OCCCCCCCC(C)C [Dermol 108, Isodecyl Octanoate]","29,6 mN/m"
5,"CC(C)CCCCCCCOC(=O)CC(C)CC(C)(C)C (stereo not drawn) [Dermol 109, Isodecyl 3,5,5 Trimethyl Hexanoate]","29,1 mN/m"
6,"CCCCCCCCCC(=O)OCCCC(C)C [Dermol IHD, Isohexyldecanoate]","29,7 mN/m"
7,CCCCCCOCCCCCC [Dihexyl Ether],"29,2 mN/m"
8,"CCCCCCCCCCC(CO)CCCCCCCC (stereo not drawn) [Eutanol G, Octyldodecanol]","24,8 mN/m"
9,"CCCCCCC(CCCC)C(=O)O (stereo not drawn) [Isocarb 12, Butyl Octanoicacid]","22,1 mN/m"
10,"CCCCCCC(CO)CCCC (stereo not drawn) [Isofol 12, Butyl Octanol]","17,4 mN/m"
11,"CCCCCCCCC(CO)CCCCCC (stereo not drawn) [Isofol 16, Hexyl Decanol]","24,3 mN/m"
12,"CCCCCCCCCCCCCCCCCC(=O)OC(C)C [Isopropylstearat, Isopropyl Stearate]","21,9 mN/m"
13,"CCCCCCCCCCCCCC(=O)OCC(CCCCCCCC)CCCCCCCCCC (stereo not drawn) [M.O.D., Octyldodeceyl Myristate]","22,1 mN/m"
14,"CCCCCCCCCCCCCCCCCCOC(=O)CCCCCC [Tegosoft SH, Stearyl Heptanoate]","17,8 mN/m"
15,"CCCCCCCC(=O)OCC(COC(=O)CCCCCCC)OC(=O)CCCCCCC [Trivent OCG, Tricaprylin]","20,2 mN/m"
16,Cetearyl Isononanoate [Cetiol SN],"28,6 mN/m"
17,Cyclomethicone [DC Fluid 345],"28,5 mN/m"
18,Cyclopolydimethylsiloxan [Dow Corning Fluid 244],"28,5 mN/m"
19,"Isotridecyl 3,5,5 Trimethylhexanonanoate [Dermol 139]","24,5 mN/m"
20,PEG 2 Diethylenhexanoate [Dermol 488],"10,1 mN/m"
21,Phenyl Trimethicone [Silikonöl VP 1120],"22,7 mN/m"
22,Triisostearin [Prisorine 2041 GTIS],"2,4 mN/m"
